# Source: the supplement of paper PMC10307832
# What was measured:
# Assay in all cases: relative viability (nuclei count vs DMSO), 5 days (fraction); higher = more cells survive
# Midostaurin + Foretinib = compound: CO[C@@H]1[C@H](N(C)C(=O)c2ccccc2)C[C@H]2O[C@]1(C)n1c3ccccc3c3c4c(c5c6ccccc6n2c5c31)C(=O)NC4 [Midostaurin] + COc1cc2c(Oc3ccc(NC(=O)C4(C(=O)Nc5ccc(F)cc5)CC4)cc3F)ccnc2cc1OCCCN1CCOCC1 [Foretinib] (partner 0.25 µM)
# Procedure, shortened: (§1)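 Cells from lung cancer lines were seeded into 1536-well plates and, one day later, dosed by pin tool. Treatments were either a single drug or a fixed dose of an anchor drug with five library-drug doses (not always all listed) in √10 steps. After 5 days, nuclei were stained in a one-step fixation (final 0.05% Triton X-100, 1% formaldehyde, 1 ug/ml Hoechst) and counted on 4× images, and relative viability is the treated-to-vehicle nuclei ratio, as the median of duplicate plates.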
# Midostaurin + Crizotinib = compound: CO[C@@H]1[C@H](N(C)C(=O)c2ccccc2)C[C@H]2O[C@]1(C)n1c3ccccc3c3c4c(c5c6ccccc6n2c5c31)C(=O)NC4 [Midostaurin] + C[C@@H](Oc1cc(-c2cnn(C3CCNCC3)c2)cnc1N)c1c(Cl)ccc(F)c1Cl [Crizotinib] (partner 1 µM)
# Procedure, shortened: as §1
# [1] = compound: COc1cc(-c2nn([C@H]3CC[C@H](N4CCN(C(C)=O)CC4)CC3)c3ncnc(N)c23)ccc1NC(=O)c1cc2ccccc2n1C + CC(C)C[C@H](NC(=O)[C@H](Cc1ccccc1)NC(=O)c1cnccn1)B(O)O [Bortezomib] (partner 0.002 µM)
# Procedure, shortened: as §1
# [2] = compound: COc1cc(-c2nn([C@H]3CC[C@H](N4CCN(C(C)=O)CC4)CC3)c3ncnc(N)c23)ccc1NC(=O)c1cc2ccccc2n1C + CS(=O)(=O)CCNCc1ccc(-c2ccc3ncnc(Nc4ccc(OCc5cccc(F)c5)c(Cl)c4)c3c2)o1 [Lapatinib] (partner 2 µM)
# Procedure, shortened: as §1
# [3] = compound: COc1cc(-c2nn([C@H]3CC[C@H](N4CCN(C(C)=O)CC4)CC3)c3ncnc(N)c23)ccc1NC(=O)c1cc2ccccc2n1C + Nc1nc2[nH]cc(CCc3ccc(C(=O)N[C@@H](CCC(=O)O)C(=O)O)cc3)c2c(=O)[nH]1 [Pemetrexed] (partner 0.2 µM)
# Procedure, shortened: as §1
Cell Line,relative viability (Midostaurin + Foretinib; first compound 0.01 µM),relative viability (Midostaurin + Foretinib; first compound 0.03162 µM),relative viability (Midostaurin + Foretinib; first compound 0.1 µM),relative viability (Midostaurin + Foretinib; first compound 0.3162 µM),relative viability (Midostaurin + Crizotinib; first compound 0.01 µM),relative viability (Midostaurin + Crizotinib; first compound 0.03162 µM),relative viability (Midostaurin + Crizotinib; first compound 0.1 µM),relative viability (Midostaurin + Crizotinib; first compound 0.3162 µM),relative viability ([1]; first compound 0.0128 µM),relative viability ([1]; first compound 0.04048 µM),relative viability ([1]; first compound 0.128 µM),relative viability ([1]; first compound 1.28 µM),relative viability ([2]; first compound 0.0128 µM),relative viability ([2]; first compound 0.04048 µM),relative viability ([2]; first compound 0.128 µM),relative viability ([2]; first compound 1.28 µM),relative viability ([3]; first compound 0.0128 µM),relative viability ([3]; first compound 0.04048 µM),relative viability ([3]; first compound 0.128 µM),relative viability ([3]; first compound 1.28 µM)
NCI-H2085,1.02,0.845,0.863,0.555,0.769,0.805,0.814,0.582,1.05,1.06,1.12,1.14,0.77,0.822,0.805,0.564,0.915,0.86,0.81,0.539
NCI-H2087,1.15,0.942,1.21,0.775,0.794,0.655,0.835,0.656,0.855,0.772,0.869,0.991,1.05,0.659,0.93,1.17,0.601,–,0.697,0.707
NCI-H2126,1.19,1.14,1.04,1.15,1.02,0.951,0.965,1.04,1.17,1.17,1.06,1.03,0.801,0.859,0.718,0.68,0.621,0.656,0.669,0.618
NCI-H2228,0.922,0.85,1.08,0.905,0.662,0.434,0.361,0.509,0.945,1.08,0.804,0.559,1.37,0.958,1.14,0.861,0.362,0.348,0.31,0.322
NCI-H2347,1.2,1.13,0.841,1.5,0.678,0.684,0.802,0.808,0.82,1.07,1.15,0.697,1.1,0.874,0.927,1.05,0.45,0.447,0.431,0.382
NCI-H2405,1.05,0.985,1.01,0.96,0.787,0.825,0.797,0.842,0.939,–,0.936,0.668,1.13,0.554,0.955,0.446,1.02,0.698,0.991,0.426
NCI-H3122,0.926,0.94,0.718,0.976,0.286,0.258,0.3,0.331,1.14,–,1.01,0.788,1.04,–,0.99,0.841,0.19,–,0.201,0.194
PC-3 [JPC-3],1.05,0.942,1.02,0.959,0.99,0.824,0.966,0.943,0.94,0.823,0.827,0.819,0.444,0.444,0.431,0.462,0.971,1.15,1.02,1.15
PC-14,0.984,0.924,0.909,0.899,0.903,0.882,0.832,0.907,0.9,0.967,0.892,1.06,0.308,0.371,0.297,0.208,0.136,0.118,0.136,0.133
RERF-LC-KJ,0.915,0.866,0.939,0.936,0.892,0.764,0.813,0.811,1.16,1.21,1.13,1.07,0.911,0.915,0.849,0.857,0.489,0.494,0.47,0.46
SK-LU-1,0.799,0.869,0.747,0.621,0.913,0.948,0.914,0.584,1.53,1.22,1.17,0.783,0.913,0.902,0.721,0.681,1.06,1.03,0.936,0.686
SW 1573,1.05,0.806,1.03,1.01,0.704,1.01,0.782,0.631,0.956,1.11,0.98,0.8,0.981,1,0.914,0.808,0.862,0.754,0.885,0.759
